According to patent EP4230620A1, “SUBSTITUTED N-AMINO-N-BENZOIC ACID URACILS, THEIR SALTS AND USE OF SAID COMPOUNDS AS HERBICIDAL AGENTS” (Bayer Aktiengesellschaft, priority 2022, dated 2023):

Assays:
Type in all cases: in vivo
Viola tricolor = test: Post-emergence herbicidal action in greenhouse against VIOTR; details: visual rating after ca. 3 weeks
Excerpt: (§1) Biologische Beispiele: • Die folgenden Abkürzungen werden für die in den folgenden Tabellen aufgeführten Kultur- und Schadpflanzen verwendet: ABUTH: Abutilon theophrasti ALOMY: Alopecurus myosuroides AMARE: Amaranthus retroflexus BRSNS: Brassica napus DIGSA: Digitaria sanguinalis ECHCG: Echinochloa crus-galli GLXMA: Glycine max KCHSC: Kochia scoparia LOLRI: Lolium rigidum MATIN: Matricaria inodora ORYZA: Oryza sativa PHPBU: Pharbitis purpurea POLCO: Polygonum convolvulus SETVI: Setaria viridis VERPE: Veronica persica VIOTR: Viola tricolor TRZAS: Triticum aestivum ZEAMX: Zea mays • A. Herbizide Wirkung im Nachauflauf
(§2) Samen von mono- bzw. dikotylen Unkrautpflanzen wurden in Kunststoff- oder Holzfasertöpfen in sandigem Lehmboden ausgelegt, mit Erde abgedeckt und im Gewächshaus unter kontrollierten Wachstumsbedingungen angezogen. 2 bis 3 Wochen nach der Aussaat wurden die Versuchspflanzen im Einblattstadium behandelt. Die in Form von benetzbaren Pulvern (WP) oder als Emulsionskonzentrate (EC) formulierten erfindungsgemäßen Verbindungen wurden dann als wässrige Suspension bzw. Emulsion unter Zusatz von 0,5% Additiv mit einer Wasseraufwandmenge von umgerechnet 600 l/ha auf die grünen Pflanzenteile gesprüht. Nach ca. 3 Wochen Standzeit der Versuchspflanzen im Gewächshaus, unter optimalen Wachstumsbedingungen, wurde die Wirkung der Präparate visuell im Vergleich zu unbehandelten Kontrollen bonitiert. Beispielsweise bedeutet 100% Wirkung = Pflanzen sind abgestorben, 0% Wirkung = wie Kontrollpflanzen.
(§3) In den nachstehenden Tabellen A1 bis A11 sind die Wirkungen ausgewählter Verbindungen der allgemeinen Formel (I) gemäß der Tabelle 1 auf verschiedene Schadpflanzen und einer Aufwandmenge entsprechend 20 g/ha und niedriger, die gemäß zuvor genannter Versuchsvorschrift erhalten wurden, dargestellt. Tabelle A1a: Nachauflaufwirkung bei 1,25 g/ha gegen ABUTH in %

Pharbitis purpurea = test: Post-emergence herbicidal action in greenhouse against PHBPU; details: visual rating after ca. 3 weeks
Excerpt: as §1, §2, §3

Alopecurus myosuroides = test: Post-emergence herbicidal action in greenhouse against ALOMY; details: 20 g/ha; post-emergence spray, 600 l/ha water; visual rating after ca. 3 weeks vs untreated controls; 100% = plants dead, 0% = like control plants
Excerpt: as §1, §2, §3

Setaria viridis = test: Post-emergence herbicidal action in greenhouse against SETVI; details: visual rating after ca. 3 weeks
Excerpt: as §1, §2, §3

Matricaria inodora = test: Post-emergence herbicidal action in greenhouse against MATIN; details: visual rating after ca. 3 weeks
Excerpt: as §1, §2, §3

Oryza sativa = test: Post-emergence action on crop plants in greenhouse, ORYZA; details: crop plant, visual rating after ca. 3 weeks, 100% = plants dead, 0% = like control plants
Excerpt: as §1
as §2, with “Kulturpflanzen” for “Unkrautpflanzen”
as §3, with “B1” for “A1”, “B4” for “A11”, “Kulturpflanzen” for “Schadpflanzen”, “B1a:” for “A1a:”, “ZEAMX” for “ABUTH”

Abutilon theophrasti = test: Post-emergence herbicidal action in greenhouse against ABUTH; details: post-emergence spray, 600 l/ha water, visual rating after ca. 3 weeks vs untreated controls, 100% = plants dead, 0% = like control plants
Excerpt: as §1, §2, §3

Digitaria sanguinalis = test: Post-emergence herbicidal action in greenhouse against DIGSA; details: visual rating after ca. 3 weeks
Excerpt: as §1, §2, §3

Polygonum convolvulus = test: Post-emergence herbicidal action in greenhouse against POLCO; details: visual rating after ca. 3 weeks
Excerpt: as §1, §2, §3

Amaranthus retroflexus = test: Post-emergence herbicidal action in greenhouse against AMARE; details: post-emergence spray, 600 l/ha water, visual rating after ca. 3 weeks vs untreated controls, 100% = plants dead, 0% = like control plants
Excerpt: as §1, §2, §3

Triticum aestivum = test: Post-emergence action on crop plants in greenhouse, TRZAS; details: crop plant, visual rating after ca. 3 weeks, 100% = plants dead, 0% = like control plants
Excerpt: as §1
as §2, with “Kulturpflanzen” for “Unkrautpflanzen”
as §3, with “B1” for “A1”, “B4” for “A11”, “Kulturpflanzen” for “Schadpflanzen”, “B1a:” for “A1a:”, “ZEAMX” for “ABUTH”

Veronica persica = test: Post-emergence herbicidal action in greenhouse against VERPE; details: visual rating after ca. 3 weeks
Excerpt: as §1, §2, §3

Zea mays = test: Post-emergence action on crop plants in greenhouse, ZEAMX; details: 1,25 g/ha, crop plant, post-emergence, visual rating after ca. 3 weeks; 100% = plants dead, 0% = like control plants
Excerpt: as §1
as §2, with “Kulturpflanzen” for “Unkrautpflanzen”
as §3, with “B1” for “A1”, “B4” for “A11”, “Kulturpflanzen” for “Schadpflanzen”, “B1a:” for “A1a:”, “ZEAMX” for “ABUTH”

| Nachauflaufwirkung gegen ORYZA (Oryza sativa; 1,25 g/ha) [%] | Nachauflaufwirkung gegen TRZAS (Triticum aestivum; 1,25 g/ha) [%] | Nachauflaufwirkung gegen TRZAS (Triticum aestivum; 5 g/ha) [%] | SMILES | Nachauflaufwirkung gegen VIOTR (Viola tricolor; 1,25 g/ha) [%] | Nachauflaufwirkung gegen VIOTR (Viola tricolor; 5 g/ha) [%] | Nachauflaufwirkung gegen VIOTR (Viola tricolor; 20 g/ha) [%] | Nachauflaufwirkung gegen PHBPU (Pharbitis purpurea; 1,25 g/ha) [%] | Nachauflaufwirkung gegen PHBPU (Pharbitis purpurea; 5 g/ha) [%] | Nachauflaufwirkung gegen PHBPU (Pharbitis purpurea; 20 g/ha) [%] | Nachauflaufwirkung gegen SETVI (Setaria viridis; 20 g/ha) [%] | Nachauflaufwirkung gegen MATIN (Matricaria inodora; 20 g/ha) [%] | Nachauflaufwirkung gegen ABUTH (Abutilon theophrasti; 5 g/ha) [%] | Nachauflaufwirkung gegen ABUTH (Abutilon theophrasti; 20 g/ha) [%] | Nachauflaufwirkung gegen DIGSA (Digitaria sanguinalis; 20 g/ha) [%] | Nachauflaufwirkung gegen POLCO (Polygonum convolvulus; 20 g/ha) [%] | Nachauflaufwirkung gegen AMARE (Amaranthus retroflexus; 1,25 g/ha) [%] | Nachauflaufwirkung gegen AMARE (Amaranthus retroflexus; 5 g/ha) [%] | Nachauflaufwirkung gegen AMARE (Amaranthus retroflexus; 20 g/ha) [%] | Nachauflaufwirkung gegen VERPE (Veronica persica; 5 g/ha) [%] | Nachauflaufwirkung gegen VERPE (Veronica persica; 20 g/ha) [%] | further results |
| --- | --- | --- | --- | --- | --- | --- | --- | --- | --- | --- | --- | --- | --- | --- | --- | --- | --- | --- | --- | --- | --- |
| 0 | 0 | 0 | COCCOC(=O)C(C)(C)OC(=O)c1cc(-n2c(=O)cc(C(F)(F)F)n(N)c2=O)ccc1Cl [I.2-1] | 90 | 100 | 100 | 80 | 90 | 100 | 100 | 100 | 100 | 100 | 100 | 100 | 100 | 100 | 100 | 100 | 100 | Nachauflaufwirkung gegen ALOMY (Alopecurus myosuroides): 80%; Nachauflaufwirkung gegen SETVI (Setaria viridis; 1,25 g/ha): 100%; Nachauflaufwirkung gegen SETVI (Setaria viridis; 5 g/ha): 100%; Nachauflaufwirkung gegen MATIN (Matricaria inodora; 5 g/ha): 90%; Nachauflaufwirkung gegen ORYZA (Oryza sativa; 5 g/ha): 0%; Nachauflaufwirkung gegen ABUTH (Abutilon theophrasti; 1,25 g/ha): 90%; Nachauflaufwirkung gegen TRZAS (Triticum aestivum; 20 g/ha): 10%; Nachauflaufwirkung gegen VERPE (Veronica persica; 1,25 g/ha): 80% |
| 0 | 0 | 0 | CC(C)(OC(=O)c1cc(-n2c(=O)cc(C(F)(F)F)n(N)c2=O)ccc1Cl)C(=O)OCC#N [I.2-176, 1-(Cyanmethoxy)-2-methyl-1-oxopropan-2-yl-5-[3-amino-2,6-dioxo-4-(trifluormethyl)-3,6-dihydropyrimidin-1(2H)-yl]-2-chlorbenzoat] | 80 | 100 | 100 | 90 | 100 | 100 | 100 | 80 | 100 | 100 | 100 | 100 | 100 | 100 | 100 | 90 | 100 | Nachauflaufwirkung gegen ZEAMX (Zea mays): 20%; Nachauflaufwirkung gegen ORYZA (Oryza sativa; 5 g/ha): 20%; Nachauflaufwirkung gegen ABUTH (Abutilon theophrasti; 1,25 g/ha): 80% |
| 0 | 0 | 0 | CC(C)=NOC(=O)C(C)(C)OC(=O)c1cc(-n2c(=O)cc(C(F)(F)F)n(N)c2=O)ccc1Cl [I.2-491] | 80 | 100 | 100 | 90 | 100 | 100 | 100 | 100 | 100 | 100 | 100 | 100 | 80 | 100 | 100 | 100 | 100 | Nachauflaufwirkung gegen SETVI (Setaria viridis; 1,25 g/ha): 90%; Nachauflaufwirkung gegen SETVI (Setaria viridis; 5 g/ha): 100%; Nachauflaufwirkung gegen MATIN (Matricaria inodora; 5 g/ha): 80%; Nachauflaufwirkung gegen ORYZA (Oryza sativa; 5 g/ha): 0%; Nachauflaufwirkung gegen DIGSA (Digitaria sanguinalis; 5 g/ha): 100%; Nachauflaufwirkung gegen TRZAS (Triticum aestivum; 20 g/ha): 20% |

Further lines, the compound ahead of its results:

| SMILES | Nachauflaufwirkung gegen ORYZA (Oryza sativa; 1,25 g/ha) [%] | Nachauflaufwirkung gegen TRZAS (Triticum aestivum; 1,25 g/ha) [%] | Nachauflaufwirkung gegen TRZAS (Triticum aestivum; 5 g/ha) [%] | Nachauflaufwirkung gegen VIOTR (Viola tricolor; 1,25 g/ha) [%] | Nachauflaufwirkung gegen VIOTR (Viola tricolor; 5 g/ha) [%] | Nachauflaufwirkung gegen VIOTR (Viola tricolor; 20 g/ha) [%] | Nachauflaufwirkung gegen PHBPU (Pharbitis purpurea; 1,25 g/ha) [%] | Nachauflaufwirkung gegen PHBPU (Pharbitis purpurea; 5 g/ha) [%] | Nachauflaufwirkung gegen PHBPU (Pharbitis purpurea; 20 g/ha) [%] | Nachauflaufwirkung gegen SETVI (Setaria viridis; 20 g/ha) [%] | Nachauflaufwirkung gegen MATIN (Matricaria inodora; 20 g/ha) [%] | Nachauflaufwirkung gegen ABUTH (Abutilon theophrasti; 5 g/ha) [%] | Nachauflaufwirkung gegen ABUTH (Abutilon theophrasti; 20 g/ha) [%] | Nachauflaufwirkung gegen DIGSA (Digitaria sanguinalis; 20 g/ha) [%] | Nachauflaufwirkung gegen POLCO (Polygonum convolvulus; 20 g/ha) [%] | Nachauflaufwirkung gegen AMARE (Amaranthus retroflexus; 1,25 g/ha) [%] | Nachauflaufwirkung gegen AMARE (Amaranthus retroflexus; 5 g/ha) [%] | Nachauflaufwirkung gegen AMARE (Amaranthus retroflexus; 20 g/ha) [%] | Nachauflaufwirkung gegen VERPE (Veronica persica; 5 g/ha) [%] | Nachauflaufwirkung gegen VERPE (Veronica persica; 20 g/ha) [%] | further results |
| --- | --- | --- | --- | --- | --- | --- | --- | --- | --- | --- | --- | --- | --- | --- | --- | --- | --- | --- | --- | --- | --- |
| C=CCOC(=O)C(C)(C)OC(=O)c1cc(-n2c(=O)cc(C(F)(F)F)n(N)c2=O)c(F)cc1Cl [I.1-471, 1-(Allyloxy)-2-methyl-1-oxopropan-2-yl-5-[3-amino-2,6-dioxo-4-(trifluormethyl)-3,6-dihydropyrimidin-1(2H)-yl]-2-chlor-4-fluorbenzoat] | 0 | 0 | 20 | 90 | 100 | 100 | 100 | 100 | 100 | 100 | 100 | 100 | 100 | 100 | 100 | 100 | 100 | 100 | 100 | 100 | Nachauflaufwirkung gegen ALOMY (Alopecurus myosuroides): 100%; Nachauflaufwirkung gegen SETVI (Setaria viridis; 1,25 g/ha): 100%; Nachauflaufwirkung gegen SETVI (Setaria viridis; 5 g/ha): 100%; Nachauflaufwirkung gegen MATIN (Matricaria inodora; 5 g/ha): 100%; Nachauflaufwirkung gegen ABUTH (Abutilon theophrasti; 1,25 g/ha): 100%; Nachauflaufwirkung gegen DIGSA (Digitaria sanguinalis; 5 g/ha): 100%; Nachauflaufwirkung gegen POLCO (Polygonum convolvulus; 5 g/ha): 100%; Nachauflaufwirkung gegen VERPE (Veronica persica; 1,25 g/ha): 100% |
| CC(C)(OC(=O)c1cc(-n2c(=O)cc(C(F)(F)F)n(N)c2=O)ccc1Cl)C(=O)OCc1ccccn1 [I.2-286] | 0 | 0 | 0 | 100 | 100 | 100 | 100 | 100 | 100 | 100 | 100 | 100 | 100 | 100 | 100 | 80 | 100 | 100 | 100 | 100 | Nachauflaufwirkung gegen ZEAMX (Zea mays): 20%; Nachauflaufwirkung gegen SETVI (Setaria viridis; 1,25 g/ha): 90%; Nachauflaufwirkung gegen SETVI (Setaria viridis; 5 g/ha): 100%; Nachauflaufwirkung gegen ORYZA (Oryza sativa; 5 g/ha): 0%; Nachauflaufwirkung gegen ABUTH (Abutilon theophrasti; 1,25 g/ha): 80%; Nachauflaufwirkung gegen DIGSA (Digitaria sanguinalis; 5 g/ha): 80%; Nachauflaufwirkung gegen POLCO (Polygonum convolvulus; 5 g/ha): 100%; Nachauflaufwirkung gegen TRZAS (Triticum aestivum; 20 g/ha): 10% |
